Assay results published in patent US9586928B2 (The Scripps Research Institute, priority 2011, dated 2017).

Assays:
RORα [1] = molecular target: T1, RORα (Homo sapiens, UniProt P35398); test: IL-17 promoter luciferase reporter with full-length RORα; assay type: cell-based
T1 sequence (P35398 1-523): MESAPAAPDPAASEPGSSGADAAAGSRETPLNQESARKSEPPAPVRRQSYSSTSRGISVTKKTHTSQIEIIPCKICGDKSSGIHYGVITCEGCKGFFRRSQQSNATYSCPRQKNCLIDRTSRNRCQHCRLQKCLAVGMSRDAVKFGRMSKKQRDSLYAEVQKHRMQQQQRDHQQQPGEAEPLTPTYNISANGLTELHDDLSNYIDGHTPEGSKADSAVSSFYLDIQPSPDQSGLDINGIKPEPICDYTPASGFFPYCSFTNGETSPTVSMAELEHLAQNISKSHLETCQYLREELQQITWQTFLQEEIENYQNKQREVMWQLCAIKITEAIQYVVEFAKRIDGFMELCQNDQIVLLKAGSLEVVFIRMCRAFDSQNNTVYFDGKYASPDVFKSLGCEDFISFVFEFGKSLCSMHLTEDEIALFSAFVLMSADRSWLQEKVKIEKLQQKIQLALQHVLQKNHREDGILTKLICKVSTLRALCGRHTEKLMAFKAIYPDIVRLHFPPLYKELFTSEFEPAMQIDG
Source text: Since RORα and RORγ are critical regulators of IL-17 gene expression, we examined whether SR1555 would affect RORα and RORγ-dependent regulation of an IL-17 promoter driven luciferase reporter construct. HEK293 cells were transiently transfected with an IL-17 reporter, either full-length RORα or RORγ, and treated with an increasing concentration of SR1555[8]. In a dose dependent manner, SR1555 suppressed IL-17 promoter driven activity by RORγ but not RORα, further confirming that SR1555 is indeed a RORγ-specific inverse agonist (FIG. 1d). Finally, using EL4 cells, a murine thymoma which endogenously express RORα, RORγ t, and IL-17A, we examined whether SR1555 affected endogenous IL-17 gene expression. EL4 cells were treated with DMSO or SR1555 for 24 hours and analyzed for Il17a gene expression by quantitative real-time PCR.
Cotransfection assays were performed as previously described in HEK293 cells (Gal4 cotransfection assay or IL-17 luciferase reporter)[8]. […]
HEK293 cells were maintained in Dulbecco's modified Eagle's medium (DMEM) supplemented with 10% fetal bovine serum at 37° C. under 5% CO2. […] The luciferase levels were assayed following additional 20 hour incubation by one-step addition of BriteLite Plus (Perkin Elmer) and read using an Envision (Perkin Elmer). […]

T regulatory cells = test: T regulatory cell differentiation of splenocytes (RTPCR, Foxp3 FACS); assay type: cell-based, murine
Experimental: Therefore, the environmental cues associated with the concentration of TGF[…] dictates the balance between TH17 and T regulatory cell differentiation. In light of the reciprocal relationship between these two cell types, we assessed whether SR1555 affected the development of T regulatory cells in vitro. Splenocytes were cultured under T regulatory cell polarizing conditions (TGFβ and IL-2) for 3 days. […] To determine whether the gene expression data would correlate with protein expression, we again cultured splenocytes for 5 days under T regulatory cell polarizing conditions in the presence of DMSO or SR1555 and examined the expression of Foxp3 by intracellular cytokine FACS analysis.
Splenocytes were differentiated under the following conditions: iTreg-10 μg/mL anti-IFNγ, 10 μg/mL anti-IL-4, and 2 ng/mL TGFβ (R&D Systems); 20 ug/mL anti-IFNγ, 20 ug/mL anti-IL-4, 1 ng/mL TGFβ, and 10 ng/mL IL-6 (R&D Systems) for TH17 conditions. All cultures were stimulated with 1 μg/mL anti-CD3 (eBiosciences) and 1 μg/mL anti-CD28 (eBiosciences). Four to five days after activation, all cells were restimulated with 5 ng/mL phorbol-12-myristate-13-acetate (PMA) (Sigma) and 500 ng/mL ionomycin (Sigma) for 2 hours with the addition of GolgiStop (BD Bioscience) for an additional 2 hours before intracellular staining. Cells were cultured in RPMI 1640 medium (Invitrogen) with 10% FBS and antibiotics.
RNA extraction and QRT-PCR analysis was performed as previously described.

LXR = molecular target: T2, LXR (Homo sapiens, UniProt Q13133); test: Gal4-LXRα / UAS luciferase cotransfection assay; assay type: cell-based
T2 sequence (Q13133 209-447 limits assumed): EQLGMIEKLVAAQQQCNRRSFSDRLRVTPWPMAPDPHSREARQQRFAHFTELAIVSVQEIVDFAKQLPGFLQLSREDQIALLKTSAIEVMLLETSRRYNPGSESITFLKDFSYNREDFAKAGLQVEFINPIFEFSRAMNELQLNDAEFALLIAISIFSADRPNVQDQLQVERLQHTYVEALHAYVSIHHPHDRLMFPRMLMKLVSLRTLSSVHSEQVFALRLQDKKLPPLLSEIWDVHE

RORα [2] = molecular target: T3, RORα (Homo sapiens, UniProt P35398); test: Gal4-RORα LBD / UAS luciferase cotransfection assay; assay type: cell-based; details: Gal4 chimeric cotransfection
T3 construct: expressed in transfected cells; host or cells: HEK293T
T3 sequence (P35398 272-510 limits assumed): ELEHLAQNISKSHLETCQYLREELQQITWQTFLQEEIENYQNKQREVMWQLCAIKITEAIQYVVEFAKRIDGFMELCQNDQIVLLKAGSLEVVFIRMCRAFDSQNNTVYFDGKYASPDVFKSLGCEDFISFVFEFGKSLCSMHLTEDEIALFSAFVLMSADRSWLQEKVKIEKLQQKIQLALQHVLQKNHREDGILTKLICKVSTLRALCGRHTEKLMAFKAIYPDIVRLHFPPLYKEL

VP16 = test: Gal4 DBD-VP16 / UAS luciferase control assay; assay type: cell-based
Experimental: The cells were treated with either DMSO or various compounds as indicated four hours after replating. Following additional 20 hour incubation, luciferase levels were assayed by one-step addition of 20 μL BriteLite (Perkin Elmer) and read using an Envision multilabel plate reader (Perkin Elmer).

OC(c1ccc(-c2ccc(CN3CCN(Cc4ccncc4)CC3)cc2)c(F)c1)(C(F)(F)F)C(F)(F)F [SR2211, 1,1,1,3,3,3-hexafluoro-2-(2-fluoro-4′-((4-(pyridin-4-ylmethyl)piperazin-1-yl)methyl)-[1,1′-biphenyl]-4-yl)propan-2-ol]
IL-17 promoter driven activity by RORα (RORα [1]): did not alter the transcription driven by the Il17 promoter | T regulatory cell proliferation (T regulatory cells): does not alter T regulatory cell proliferation | right shift of EC50 on LXRα (LXR): more than 100 fold | effect on LXR activity (LXR; Gal4 chimeric cotransfection): minimal activation of LXRα | activation of LXRα as compared to T1317 (LXR; highest concentration tested): less than 5% | effect on transcriptional activity of RORα (RORα [2]): did not have any impact on the transcriptional activity of RORα | luciferase activity of Gal4 DBD-VP16 (off-target effects/toxicity) (VP16): no change in the luciferase activity of Gal4 DBD-VP16
